{
  "source": "patent US7090853B2",
  "about": "“Noscapine derivatives as adjuvant compositions and methods of use thereof” (Emory University, priority 1999, dated 2006)",
  "key": {"OVA": {"tested_on": "OVA", "test": "Immune response to OVA in CFA in mice on oral noscapine", "format": "in vivo, B6 mice", "experimental": "On day 0 all mice were injected with 200 μg OVA in CFA in the foot pad. Mice were bled individually on day 18 and their sera tested for antibody to OVA by ELISA (FIG. 5A). The mice were sacrificed on day 21 and their spleen cells cultured with E.G7-OVA for 6 days and their cytolytic activity measured with ^51Cr labeled cells (FIG. 5B).\nThe inventors believe that the damage caused to the mitotic apparatus of dividing cells must be repaired by normal cells but not the tumor cells at the tumor suppressive doses. Alternatively, the tumor suppressive effects of Noscapine may be unrelated to the anti-mitotic effect of the drug."}, "[1]": {"test": "Histology and general toxicity in noscapine-treated mice", "format": "in vivo, B6 mice", "experimental": "(§1) FIGS. 3A–3I show B6 mice were injected subcutaneously with 2×10^6 E.G7-OVA tumor cells and after three days half of the mice were treated continuously with 1.5 or 3.0 mg noscapine/ml of drinking water. All of the untreated mice developed tumors and were euthanized after three weeks. […] Normal B6 mice (A–C) and mice treated for 3 months with noscapine (D–F) were euthanized.\nFIGS. 4A–4D show B6 mice were treated with 1.5 mg noscapine/ml in their drinking water or acidified water, as a negative control. One week later mice were injected with OVA in CFA. Mice were sacrificed two weeks later. […] Thus, Noscapine had no detectable toxic effect on lymphoid cells that are proliferating in response to immunization. […] The response of the gut to Noscapine is one of mild irritation. […]"}, "bovine brain tubulin": {"target": "bovine brain tubulin (Bos taurus, UniProt P81947+Q6B856)", "sequence (P81947 whole entry)": "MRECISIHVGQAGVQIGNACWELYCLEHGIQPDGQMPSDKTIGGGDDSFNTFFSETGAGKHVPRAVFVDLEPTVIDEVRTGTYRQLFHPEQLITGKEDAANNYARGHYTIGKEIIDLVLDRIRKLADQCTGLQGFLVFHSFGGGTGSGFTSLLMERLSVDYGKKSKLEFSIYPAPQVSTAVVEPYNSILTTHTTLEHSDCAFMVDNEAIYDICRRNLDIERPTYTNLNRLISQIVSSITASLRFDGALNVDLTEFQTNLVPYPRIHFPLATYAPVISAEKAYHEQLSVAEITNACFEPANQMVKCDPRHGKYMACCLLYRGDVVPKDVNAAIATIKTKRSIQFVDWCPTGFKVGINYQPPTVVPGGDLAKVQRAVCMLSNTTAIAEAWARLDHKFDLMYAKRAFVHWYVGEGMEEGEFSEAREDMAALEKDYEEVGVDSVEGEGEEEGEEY", "sequence (Q6B856 whole entry)": "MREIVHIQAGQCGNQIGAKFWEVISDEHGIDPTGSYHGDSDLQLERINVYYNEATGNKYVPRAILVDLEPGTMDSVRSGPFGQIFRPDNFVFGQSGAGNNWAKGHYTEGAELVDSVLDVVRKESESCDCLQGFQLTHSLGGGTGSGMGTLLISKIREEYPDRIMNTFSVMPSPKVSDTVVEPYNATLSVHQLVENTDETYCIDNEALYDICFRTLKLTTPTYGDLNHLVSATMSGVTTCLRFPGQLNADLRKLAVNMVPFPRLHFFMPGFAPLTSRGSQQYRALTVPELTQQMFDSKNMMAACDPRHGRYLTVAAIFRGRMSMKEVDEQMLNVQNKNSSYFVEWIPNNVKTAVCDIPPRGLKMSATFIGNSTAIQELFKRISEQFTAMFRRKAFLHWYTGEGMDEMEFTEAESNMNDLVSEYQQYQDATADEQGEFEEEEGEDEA", "test": "Fluorescence titration of tubulin binding (Scatchard plot)", "experimental": "Phosphocellulose purified bovine brain tubulin was employed throughout these biophysical experiments. Fluorescence titration for determining binding constants was performed according to Peyrot, V. et al., Biochemistry 31, 11125 (1992). […], at room temperature, 2 μM tubulin in 100 mM PIPES, 2 mM EGTA, 1 mM MgCl2 was excited at 278 nm, and the fluorescence emission spectra were recorded with bandwidths […]. The fluorescence emission intensity of noscapine at this excitation wavelength was negligible and at the concentration of noscapine used it gave no appreciable inner filter effect. The concentration of noscapine was raised in increments of 0.5 μM, until the decrease in the fluorescence intensity was saturated. The value of the dissociation constant and the number of sites were obtained from Scatchard plots using the equation, r/[L]free=n/K^d−r/Kd, where r is the ratio of the concentration of bound ligand to the total protein concentration and n is the number of binding sites. […] Microtubule assembly was recorded on a spectrophotometer with thermocontroler, The cuvettes (0.4 cm path) containing 100 mM PIPES, 2 mM EGTA, 1 mM MgCl2 and 1 mM GTP (G-PEM buffer), and 20 μM noscapine/DMSO were kept at room temperature before addition of tubulin and shifting to 37° C. […] The assembly was monitored by measuring the changes in turbidity at […]. intervals. […]"}, "E.G7-OVA tumor cells": {"tested_on": "E.G7-OVA tumor cells", "test": "Survival and tumor regression of E.G7-OVA tumor-bearing mice, noscapine in drinking water", "format": "in vivo, C57BL/6 mice", "experimental": "C57BL/6 mice were injected s.c. with 2×10^6 E.G7-OVA tumor cells. Three days later, two groups received the indicated dose of noscapine in their drinking water. There were 5 mice/group. Untreated mice survived from 6 to 7 weeks after tumor inoculation. In marked contrast, the majority of the mice treated with 1.5 or 3.0 mg/ml Noscapine survived for greater than 16 weeks when the experiment was terminated.\nas §1\nTo test whether E.G7-OVA tumor induced tolerance, tumors were ablated by treating the mice with noscapine in the drinking water beginning three days after tumor transplantation. Tumors grew in all mice that had received E.G7-OVA without noscapine."}},
  "note": "Entries after “also recorded” stand apart in the source; their conditions may differ.",
  "data": [
    {"smiles": "COc1ccc2c(c1OC)C(=O)O[C@@H]2[C@H]1c2c(cc3c(c2OC)OCO3)CCN1C", "note": "[Noscapine]", "values": [
      {"measurement": "immune response to OVA in CFA", "setting": "OVA; 1.5 mg noscapine/ml drinking water from day -7", "value": "no detectable adverse effect"},
      {"measurement": "primary antibody response", "setting": "OVA; oral noscapine, ELISA day 18", "value": "did not inhibit"},
      {"measurement": "CTL response", "setting": "OVA; oral noscapine, spleen cells day 21, 51Cr labeled cells", "value": "did not inhibit"},
      {"measurement": "histology of small intestine", "setting": "[1]; 1.5 mg noscapine/ml drinking water vs acidified water", "value": "mild edema of the villi and goblet cell hyperplasia; also recorded: edema, increased frequency of goblet cells, and prominent crypt cells"},
      {"measurement": "histology of spleen / lymph nodes", "setting": "[1]; 1.5 mg noscapine/ml drinking water vs acidified water, immunized with OVA in CFA", "value": "no alterations from control mice; also recorded: no significant differences"},
      {"measurement": "liver inflammation", "setting": "[1]; 3.0 mg dose of noscapine", "value": "few small areas of inflammation"},
      {"measurement": "histological evidence of toxicity to the kidney, liver, or heart", "setting": "[1]; mouse, in vivo", "value": "no significant histological evidence of toxicity"},
      {"measurement": "health, body weight and appearance", "setting": "[1]; noscapine in drinking water", "value": "healthy and had normal weights and appearance; also recorded: healthy and of the same weight as the control mice"},
      {"measurement": "number of mitotic figures in the crypts of the small intestine", "setting": "[1]; noscapine in drinking water vs control mice", "value": "approximately equal"},
      {"measurement": "histology of heart, kidney and liver", "setting": "[1]; treated for 3 months with noscapine in drinking water, H & E", "value": "no significant differences"},
      {"measurement": "stoichiometry", "setting": "bovine brain tubulin; Scatchard plot", "value": "0.95±0.02 noscapine molecule per complex of tubulin subunit"},
      {"measurement": "quenching of tubulin fluorescence", "setting": "bovine brain tubulin; excitation 278 nm", "value": "fluorescence quenching of tubulin"},
      {"measurement": "tumor regression", "setting": "E.G7-OVA tumor cells; 1.5 or 3.0 mg noscapine/ml of drinking water, continuous", "value": "disappeared and did not return during four months of continuous treatment; also recorded: majority of tumors in mice treated with noscapine regress"},
      {"measurement": "survival after tumor inoculation", "setting": "E.G7-OVA tumor cells; majority of mice, 1.5 or 3.0 mg/ml in drinking water from day 3, experiment terminated at 16 weeks", "value": "greater than 16 weeks"}
    ]}
  ]
}
